{
  "source": "patent US10175256B2",
  "about": "“Compositions and methods utilizing lysophosphatidylcholine scaffolds” (National University Of Singapore, priority 2013, dated 2019)",
  "key": {"mouse Mfsd2a [1]": {"molecular_target": "T1, mouse Mfsd2a (Mus musculus, UniProt Q9DA75)", "T1 construct": "expressed in transfected cells; host or cells: HEK293", "T1 sequence (Q9DA75 1-534)": "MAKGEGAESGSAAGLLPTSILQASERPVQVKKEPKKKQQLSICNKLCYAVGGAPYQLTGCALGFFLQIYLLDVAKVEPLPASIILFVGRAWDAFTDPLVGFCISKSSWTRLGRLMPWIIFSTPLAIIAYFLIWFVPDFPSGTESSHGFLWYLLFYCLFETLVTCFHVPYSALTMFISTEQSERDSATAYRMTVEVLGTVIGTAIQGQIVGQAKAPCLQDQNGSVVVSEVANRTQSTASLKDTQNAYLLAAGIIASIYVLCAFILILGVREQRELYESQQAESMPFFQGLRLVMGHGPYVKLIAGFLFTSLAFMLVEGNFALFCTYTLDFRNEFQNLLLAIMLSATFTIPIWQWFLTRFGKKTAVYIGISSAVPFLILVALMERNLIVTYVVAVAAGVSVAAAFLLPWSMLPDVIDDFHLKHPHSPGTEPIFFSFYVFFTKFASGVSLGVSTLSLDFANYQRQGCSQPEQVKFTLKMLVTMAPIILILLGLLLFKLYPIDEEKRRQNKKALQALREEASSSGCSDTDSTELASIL", "test": "TLC analysis of phospholipids (bio-incorporation of LPC into PC)", "assay_type": "cell-based", "details": "TLC", "experimental": "HEK293 cells overexpressing with pcDNA3.1Mfsd2a (WT), pcDNA3.1Mfsd2aD92A (D92A), pcDNA3.1Mfsd2aD96A, or pcDNA3.1 (mock) plasmids or human Mfsd2a (in Sport6 plasmid) were washed once with serum-free DMEM medium before incubation with 50 μM radiolabeled LPC [^14C]oleate, LPC [^14C]DHA or with 50 μM TopFluor-LPC and NBD-LPC. Lipids were extracted twice with HIP buffer for 30 mins. Lipids were dried with nitrogen stream and reconstituted in chloroform and spotted on TLC plates (Milipore). Solvent for phospholipid separation was chloroform/methanol/ammonia solution (25%) (50:25:6, per volume). TLC plates of radiolabeled phospholipids were dried for 30 mins and exposed overnight to Phosphorscreens and scanned with Typhoon FLA 9000 scanner (Agilent). TLC plates of fluorescent phospholipids were scanned with Typhoon FLA 9000 scanner and quantified using Imagequant software."}, "Mfsd2a": {"molecular_target": "T2, Mfsd2a (Mus musculus, UniProt Q9DA75)", "T2 sequence (Q9DA75 1-534)": "T1 sequence (Q9DA75 1-534)", "test": "In vivo transport of radiolabeled, fluorescent LPCs and unesterified DHA in Mfsd2a KO and wild-type mice", "parameters": "from tissue; host or cells: living mice; brain (blood-brain barrier endothelium), liver, heart; fetal brain", "details": "i.v. injection, 2 hrs post-injection, radiolabel", "experimental": "Male and female mice of age of 6-8 weeks were IV injected with 75 μl of 20 mM radiolabeled LPC-[…], 100 μl of 10 mM LPC-[^14C]DHA/BSA complex or 82 μl of 12.2 mM [^14C]DHA/BSA complex in a total volume of 150 μl of phosphate-buffered saline. At 2 hours post injection, mice were anesthetized and perfused for 5 mins with PBS containing 0.5% BSA in order to remove blood and lipid tracer bound to the brain vasculature. Tissues were harvested for lipid extraction. For lipid extraction, tissues were weighed and similar amounts of tissues were homogenized in chloroform/methanol. Lipids from the organic phase were mixed with scintillant and scintillation counted. Similar experiments were also performed with an injection of 300 μg NBD-LPC/BSA or 300 μg TopFluor-LPC/BSA complex per mouse. In this experiment, mice were perfused for 5 mins with PBS followed 15 mins perfusion with 4% paraformaldehyde (PFA) for tissue fixation. Brain sections of WT and KO with a thickness of 40 μm were prepared and scanned using green fluorescence mode in Typhoon FLA 9000 scanner (Agilent). NBD-LPC accumulation was expressed as fluorescence of each section per its area. Dietary DHA transport from mother to fetus was also measured using [^14C]DHA/BSA complex. Pregnant females at e18.5 was gavaged with bolus of [^14C]DHA/BSA complex (200 μl of 10 mM [^14C]DHA/BSA/mouse). Brain of fetuses were collected 20 hours post-gavage and weighed. Lipid extraction and radioactivity were performed as described above."}, "mouse Mfsd2a [2]": {"molecular_target": "T1, mouse Mfsd2a", "test": "In vitro transport (uptake) of radiolabeled and fluorescent LPCs in HEK293 cells overexpressing Mfsd2a", "assay_type": "cell-based", "experimental": "Uptake assays of radiolabeled LPCs or fluorescent LPCs were tested using HEK293 cells overexpressing Mfsd2a and mutants constructs. Briefly, HEK293 cells at 90-95% confluency were transfected using LIPOFECTAMINE 2000 (Invitrogen) with pcDNA3.1Mfsd2a (WT), pcDNA3.1Mfsd2aD92A (D92A), pcDNA3.1Mfsd2aD96A (D96A), or pcDNA3.1 (mock) plasmids. Uptake assays were performed after 24 hours of transfections. Prior to ligand incubation, HEK293 transfected cells were washed with serum-free DMEM before assays. For concentration and time dependent assays, radiolabeled LPCs were diluted in pre-warmed DMEM media. For sodium dependent assay, radiolabeled LPCs were diluted in transport buffer (5 mM KCl, 10 mM Hepes, pH 7.4) with 150 mM NaCl or 150 mM choline chloride. For sodium concentration dependent assays, any reductions in the concentration of NaCl were replaced by choline chloride in order to maintain a constant cation molarity of 150 mM. All assays were performed in 12 well-plates with triplicates and at 37° C."}, "[3]": {"test": "Blood LPC [14C]-oleate analysis", "assay_type": "in vivo, mice", "details": "intravenous, 2 hrs post-injection", "experimental": "Mfsd2a KO and WT mice were injected intravenously with 100 μM radioactive labeled LPC [^14C]-oleate. 10 μl of blood samples were collected after 2 min (initial dose) and after 2 hr from tail vein, and radioactivity was quantified by scintillation counting. The amount of plasma LPC [^14C]-oleate in the KO mice was expressed as ratio to the WT at each time point."}},
  "data": [
    {"smiles": "CCCCCCCCC=CCCCCCCCC(=O)OC[C@@H](O)COP(=O)([O-])OCC[N+](C)(C)C", "note": "[LPC-[^14C]oleate, 1-oleoyl 2-lysophosphocholine]", "values": [
      {"measurement": "net uptake of LPC ligand (PC mass)", "setting": "mouse Mfsd2a [1]; 100 μM unlabeled LPC-oleate, 1 hour", "result": "Increased net uptake"},
      {"measurement": "conversion of transported LPCs into PCs", "setting": "mouse Mfsd2a [1]; HEK293 cells expressing Mfsd2a, radiolabeled LPC", "result": "rapid conversion of transported LPCs into PCs"},
      {"measurement": "brain uptake in KO mice relative to wild-type", "setting": "Mfsd2a", "result": "markedly reduced"},
      {"measurement": "comparison of Mfsd2a-mediated uptake (capacity to transport)", "setting": "mouse Mfsd2a [2]; HEK293 cells expressing Mfsd2a", "result": "highest capacity to transport LPC-DHA, followed by LPC-oleate, and LPC-palmitate"},
      {"measurement": "uptake of radiolabeled LPC by cells expressing Mfsd2a relative to control cells", "setting": "mouse Mfsd2a [2]; HEK293 cells, wild-type Mfsd2a vs mock, LPC/BSA, 30 mins", "result": "concentration-dependent uptake"},
      {"measurement": "plasma level of injected tracer in KO mice relative to WT", "setting": "[3]", "result": "increased levels"}
    ]}
  ]
}
